In patent US12502435B2, “Metastatic brain tumor targeting peptides” (H. Lee Moffitt Cancer Center and Research Institute, Inc., priority 2018, dated 2025):

How the values were obtained:
[1] = test system: Lung Cancer Brain Metastases cells; assay: peptide binding to lung cancer brain metastases cells (FIGS. 3, 5, 7B); settings: MH1002
[2] = test system: non-malignant brain cells; assay: peptide binding to non-malignant brain cells (FIGS. 3, 5, 7A)
[3] = test system: Lung Cancer Brain Metastases Cells (MH1002, MH1016, H1915); assay: flow cytometry binding of peptide to lung cancer brain metastases cells; settings: compared to primary lung cancer cells and non-targeting peptides
Excerpt: FIGS. 2A to 2C show binding of BRDT (LBM1) peptide applied to Primary Lung Cancer Cells, Non Malignant Brain Cells, Lung Cancer Brain Metastases Cells (MH1002, MH1016, H1915) analyzed through flow cytometry.
FIGS. 4A to 4C show binding of LBM2 peptide applied to Primary Lung Cancer Cells, Non Malignant Brain Cells, Lung Cancer Brain Metastases Cells (MH1002, MH1016, H1915) analyzed through flow cytometry.
FIGS. 6A to 6C show binding AMOT (LBM4) peptide applied to Primary Lung Cancer Cells, Non Malignant Brain Cells, Lung Cancer Brain Metastases Cells (MH1002, MH1016, H1915) analyzed through flow cytometry.
For each peptide, as the concentration of peptide goes up, there was a right shift indicating binding to the brain met cells, with minimal binding to the lung cancer primary cells, showing specificity of binding to the brain mets over the lung cancer.

[4] = test system: Primary Lung Cancer Cells; assay: peptide binding to primary lung cancer cells (FIGS. 3, 5, 7A)

| Sequence | binding to Lung Cancer Brain Metastases cells [1] | binding to non-malignant brain cells [2] | flow cytometry shift with peptide applied to lung cancer BM cells [3] | binding to primary lung cancer cells [4] |
| --- | --- | --- | --- | --- |
| SYPSNALSLHKY [LBM1] | positive binding | no binding | right shift | no binding |
| TLGLRPVPVATT [LBM2] | positive binding | no binding | right shift | no binding |
